Measured values from patent US20190054194A1, “System and Method For Evaluation of Subjects Using Magnetic Resonance Imaging and Oxygen-17” (Case Western Reserve University, priority 2017, published 2019).

Test: dynamic golden-angle 17O-MRI of H2^17O uptake and washout in brain after intravenous bolus injection (control and glioblastoma mice)
Format: in vivo
Excerpt: In one configuration, tumor and brain may be differentiated with the present methods, such as to assess the presence of a glioblastoma. […] For example, the method may allow for differentiation between subjects with a moderate tumor volume (<30%, GBM-M) and those with a large tumor volume (>30%, GBM-L). Once image reconstruction has been completed, ^17O images may be coregistered with the T2-weighted ^1H images. Tumor areas may show higher signal intensity in T2-weighted ^1H images due to having a longer T2 than normal brain tissue. Appropriate regions of interest (ROIs) that encompass the tumor and normal brain tissue may be drawn manually from T2-weighted ^1H images, or automatic segmentation routines may be used to define the ROIs. Total tumor and brain volumes may be calculated by adding the tumor and brain areas in all of the image slices. The percentage of tumor volume may then be calculated as the tumor volume divided by total brain volume.
^17O signal may be normalized by the corresponding natural abundance ^17O signal acquired before H2^17O injection or administration. Peak H2^17O uptake may be identified as the maximal signal intensity following H2^17O administration. A normalized time course of the ^17O signal from peak uptake to the end of the measurement may be fit to a monoexponential function in a pixel-wise fashion to generate the maps of peak and steady-state H2^17O uptake, as well as its washout rate. Mean values for each ROI may be calculated for each map. In tissue with no obvious washout phase or even continued accumulation of H2^17O after the injection, washout rate may be set to zero, while peak and steady-state H2^17O uptake may be calculated as the normalized ^17O signals immediately after H2^17O injection and at the end of measurement, respectively.

[1] = GBM-L mice (large tumor volume >30%)

- H2^17O uptake in normal brain tissue [1]: significantly reduced H2^17O uptake
- H2^17O washout in normal brain tissue [1]: prolonged washout
- H2^17O uptake in tumors (GBM-M mice (moderate tumor volume <30%)): reduced H2^17O uptake
- H2^17O uptake and washout (17O signal kinetics) in brain (control mice, after H2^17O injection): rapid uptake and washout
Compound: [17OH2] [H2^17O, ^17O-labeled water]
- H2^17O washout in tumors [1]: no obvious washout phase, or even continuous accumulation of H2^17O after injection
